The values below come from patent publication US9914910B2, “Methods of preserving and protecting pancreatic beta cells and treating or preventing diabetes by inhibiting NOX-1” (Eastern Virginia Medical School, priority 2013, dated 2018).

The subject of assay [1] is βTC-3 cells. As to the kind of experiment: Caspase-3 assay (pro-caspase-3 cleavage) after PIC. In kind it is cell-based, mouse. The following applies: βTC-3, PIC 4 hours, up to. On the procedure: (§1) A. Caspase-3 Assay: Pro-caspase-3 cleavage was measured using a caspase-3 Assay kit (BD Pharmigen, Franklin Lakes, N.J.) per the manufacturer's instructions; fluorescence being measured (SpectraMax, Molecular Devices, Sunnyvale, Calif.) at excitation 380 nm and emission 440 nm (INS-1) or 460 nm (βTC-3, mouse).

The next assay relates to beta cells. Kind of assay: Pro-caspase 3 cleavage after PIC, beta cell survival. In kind it is cell-based. The following applies: C1 100 nM, ML171 10 μM. On the procedure: Loss of beta cell viability in response to inflammatory cytokines was assessed by measurement of caspase 3 activation and quantified microscopy. […] Measured by pro-caspase 3 cleavage (A) or quantified microscopy of YO-PRO-1 stained cells (B). […] Shown are RFU from fluorescent capase3 substrate, ##p<0.01 relative to control; *p<0.05; **p<0.01 relative to PIC (A) and Microscopic apoptotic index ###p<0.001 relative to control; ***p<0.001; **p<0.01 relative to PIC (B).

The subject of assay [2] is βTC-3 cells. As to the kind of experiment: Apoptosis by YO-PRO-1 fluorescence microscopy after PIC. The following applies: βTC-3, PIC 24 hours, p<0.001. In kind it is cell-based, mouse. On the procedure:
B. Fluorescence microscopy: Stimulated cells or islets were washed in cold PBS, and incubated for 30 mins at 40 C with cold PBS containing 1 μg/mL propidium iodide and 0.1 μM YO-PRO-1 (Life Technologies). For cell lines, five randomly fields per well were analyzed. For islets, all islets (>1000 um2 in size) were analyzed. Densitometric fluorescent value for YO-PRO-1 (green channel) was normalized to background and expressed proportional to cell occupied area (phase contrast). Images captured across three channels with Axiophot (Zeiss, Jena, Germany) with Axiovision (Zeiss) image analysis.

The subject of another assay is INS-1 cells. Kind of assay: Glucose-stimulated insulin secretion (GSIS) after PIC. It is filed as cell-based, rat. The following applies: INS-1, 1 mM vs 16 mM glucose, p<0.05. As for the experimental part: Treated islets or cells then were washed with PBS and placed in 1 mL serum-free Kreb-Ringer buffer (115 mM NaCl, 24 mM NaHCO3, 5 mM KCl, 1 mM MgCl2, and 25 mM HEPES) for 1 hour at 370 C. Low (1 mM) or high (16 mM) glucose was added for […] for 30 min. Insulin levels in media were measured by ELISA (Mercodia, Winston Salem, N.C.) as per the manufacturer's instructions.
FIG. 4: Treatment of homogeneous rat beta cell line (INS-1) with pro-inflammatory cytokines (PIC) (TNFα, IL-1β, IFNγ) disrupts beta cell function measured by glucose-stimulated-insulin-secretion. Control (non cytokine-treated) cells respond to glucose elevation ([…]) by increasing insulin secretion. Insulin levels are plotted. In the presence of inflammatory cytokines (PIC) this response is lost and the dysfunctional cells ‘leak’ insulin. […] (*p<0.05, **p<0.01).

Another assay deals with primary mouse islets. As to the kind of experiment: Caspase-3 assay (pro-caspase-3 cleavage) after PIC. It is filed as cell-based. The following applies: 4 hours, up to. As for the experimental part: Human donor islets were obtained from integrated islet distribution project (http://iidp.coh.org) and cultured in CMRL media (Mediatech, Manassas, Va.). Mouse islets were freshly isolated from 8-week old male C57BL/6J mice (Jackson Laboratory, Bar Harbor, Me.) by common bile duct cannulation and collagenase digestion. Islets were hand picked prior to use.
as §1

For `CC(=O)c1ccc2c(c1)Nc1ccccc1S2` [ML171, 2-acetylphenothiazine], the “block of PIC-induced activation of caspase-3” value with βTC-3 cells [1] is reported as ≤ 97%±3.1%; with primary mouse islets (1 μM), “up to 100%±7%”; with primary mouse islets (10 μM) it was ≤ 100%±3%. Also, the “inflammatory cytokine-induced cell death, pro-caspase 3 cleavage” value with beta cells is listed as “significantly protected”. Moreover, the “PIC-induced apoptosis (YO-PRO-1)” value in the assay on βTC-3 cells [2] is recorded as “apoptosis was significantly decreased”. Moreover, the “glucose-stimulated insulin secretion with PIC” value in the assay on INS-1 cells is “restoring the glucose-sensitive insulin response”.
